# System: L. donovani promastigotes
# Test: Morphological analysis by transmission EM
# Assay type: cell-based, Leishmania donovani
# Conditions: two times EC50, 6 h
# Procedure: Profound morphological changes were evident in parasites treated with compounds from this series. To gain additional insight into these compound-induced changes, L. donovani promastigotes were treated with 7 at a concentration equivalent to two times the established EC50 value for 6 h before analysis by transmission EM. […] In addition, there was a significant accumulation of intracellular vesicles within treated parasites (SI Appendix, Fig. S8). Based on our target identification studies, we reasoned that an inability to recycle key proteins via the proteasome left these parasites overcome by their own waste protein products. […]
# 95°C for 3 min; 40 cycles of 95°C for 20 s; then 60 °C for 20 s. […] Relative quantification in the tetracycline-induced cell lines were normalized to the un-induced cell line using the […]
# Cultures of bloodstream T. brucei and L. donovani promastigotes at starting cell densities of 5 x 105 were incubated with concentrations of compound 7 equivalent to 5x their respective EC50 values. […] After washing, cell densities were adjusted to 5 × 10^5 cells mL, re-suspended in 500 µL of PBS containing 50 µg/mL propidium iodide, 50 µg/mL RNase and 0.1% Triton X-100, incubated at room temperature for 20 min in the dark and analysed using FACSort analytical flow cytometer using Cellquest software (BD Biosciences). j. […]
structure (smiles),measurement,value
O=C(Nc1ccc(F)c(-c2cn3nc(-c4ccccc4)cnc3n2)c1)N1CCCC1 [Compound 7],morphological changes (transmission EM),swelling of promastigotes

# Source: PMC6511062, “Preclinical candidate for the treatment of visceral leishmaniasis that acts through proteasome inhibition” (Proceedings of the National Academy of Sciences of the …, 2019)
